Patent publication US4260630A, “Skin diseases” (priority 1977, dated 1981)
“Also recorded” adds a separate entry of the source.

Key:
Saccharomyces cerevisiae [1] = assay: Repair of photoinduced lesions in yeast (repair mutants, agar holding); type: cell-based
Excerpt: Biophys. Acta, 395, 393-404.
Consequently, it appears that the excision repair pathway in wild type and rad9-4 cells is essential in AHR for both compounds.

calf thymus DNA = assay: Photobinding to native calf thymus DNA in vitro; type: binding; conditions: for cpm/μg DNA / μg 3-CPs/μg DNA: 6 × 10^-5 M
Description: These determinations were done in vitro and in vivo. […] The thickness of the irradiated sample was 1 mm. After irradiation, the solution was diluted by a factor of 2, and NaCl was added to a final concentration of 1 M. The DNA was precipitated with 2 volumes of cold pure ethanol. The samples were left overnight in the cold at -20° C. The precipitate was then washed by centrifugation three times with 3 ml of 70% ethanol and redissolved in 3 ml of water. The DNA recovery was checked by determination of the optical density of the solution at 260 nm.

yeast DNA = assay: Melting and reassociation (cross-link formation) of yeast DNA treated in vitro plus 365 nm light; type: biochemical
Description: Measurement of the melting and reassociation characteristics of yeast DNA:
Biophys. […] The fractions containing the nuclear DNA were pooled and dialysed against a 0.1 M, pH 7 phosphate buffer. […] Unirradiated samples of DNA with or without the drugs were taken as references.
The cross-links formation of the two furocoumarins with native yeast DNA was tested by measuring the denaturation and renaturation pattern.

Saccharomyces cerevisiae [2] = test system: Saccharomyces cerevisiae
Description: A wild-type strain 211-1aM (29) of Saccharomyces cerivisiae was used, and the following mutants derived from it: S24-12c rad2-20 deficient in excision repair and S25-13b rad9-4 likely to be blocked in a recombinational repair pathway; a double mutant S 2057NL-24 rad2-20 -rad9-4 clone B was obtained by tetrad analysis of a heterozygote [formula]
The media and culture conditions used were as described in D. Averbeck, E. Moustacchi, (1975) Biochim. Biophys. Acta, 395, 393-404.
10^6 cells/ml in saline (0.9% NaCl) were treated for 30 minutes with the drugs at a final concentration of 10 μg/ml and 1.2% ethanol present.
A Philips HPW 125 culot Edison high pressure mercury lamp was used with maximal output at the wavelength 365 nm. The irradiation dose measured by actinometry was 10 J/m^2 per sec., using the following set up: 10 ml of actinometer solution (or the cell suspension, usually 1×10^6 cells/ml), stirred continuously by a magnetic stirrer, were irradiated at room temperature in an open Petri dish of 10 cm diameter at a distance of 10 cm from the center of the light bulb which was mounted horizontally. A 2 mm thick pyrex glass sheet (20×25 cm) was placed in the center of the light beam to cut out UV light of wavelength below 340 nm. Overheating was prevented either by a continuous flow of compressed air between the light bulb and the glass or by a pyrex glass water filter of 3 cm total thickness. An accumulative irradiation dose was given to the same sample. After each dose 0.1 ml of irradiated cell suspension was taken, diluted and aliquots plated.

yeast RNA = assay: Photobinding to yeast RNA in vivo (radiolabelled drug plus 365 nm light); type: binding, Saccharomyces cerevisiae; conditions: for cpm for 10^8 cells: RNA; for Molecules 3-CPs/μg DNA / μg 3-CPs/μg DNA: binding to RNA
Description: The radioactivity of an aliquot (0.1 ml) of this solution was measured in 5 ml of scintillation mixture (Nuclear Entreprise, Ltd., Edinburgh, Scotland, NE 250).
For the in vivo determinations stationary phase cells of the haploid wild type strain N 123 were prepared as previously described.
2 ml cell suspensions were exposed to several doses of 365 nm light. In parallel, non irradiated samples were incubated for the same periods. Immediately after incubation and/or irradiation, the samples were centrifuged and the pellet was washed 3 times with 5 ml of saline (0.9% NaCl). The washed cell pellet was resuspended in 1 ml of saline and 1 ml of 2 N NaOH was added in order to hydrolyze the RNA. The suspension was incubated overnight in the dark at room temperature, then cooled down on ice, and 2 ml of 50% TCA were added slowly. The samples were left 20 minutes on ice and the precipitated DNA was filtered on a glass fiber filter disc (Whatman GF/A, 2.1 cm diameter). In some cases the filtrate containing the acid-soluble material was kept aside, and the radioactivity of an aliquot added to 5 ml of NE250 scintillation mixture measured. The precipitate was washed 3 times with 5 ml of 5% cold TCA and 5 ml of 70% ethanol. The filters were then dried and the radioactivity measured in plastic counting vials containing 5 ml of scintillation mixture (NE 250) in a Tricarb Packard scintillation spectrophotometer.

[3] = 15 min, 18.9 × 10^4 ergs. mm^-2 365 nm
[4] = 30 min, 37.8 × 10^4 ergs. mm^-2 365 nm
[5] = 45 min, 56.7 × 10^4 ergs. mm^-2 365 nm
[6] = 60 min, 75.6 × 10^4 ergs. mm^-2 365 nm
[7] = 5 min, 6.3 × 10^4 ergs.mm^-2 365 nm
[8] = 10 min, 12.6 × 10^4 ergs.mm^-2 365 nm
[9] = 15 min, 18.9 × 10^4 ergs.mm^-2 365 nm
[10] = 20 min, 25.2 × 10^4 ergs.mm^-2 365 nm

CCOC(=O)c1cc2cc3ccoc3cc2oc1=O [Example 3-CPs, 3-carboethoxypsoralen]
dark repair by strain defective in excision (Saccharomyces cerevisiae [1]; agar holding): unable to perform a dark repair | repair by strain defective in recombination (Saccharomyces cerevisiae [1]; agar holding): reduced capacity to repair | interaction between rad2 and rad9 repair pathways (Saccharomyces cerevisiae [1]; plus 365 nm light): synergistic interaction | kinetics of agar holding recovery (AHR) (Saccharomyces cerevisiae [1]; wild-type cells): same kinetics of AHR | cpm/μg DNA (calf thymus DNA; 0-60 min incubation (dark)): 0.21 cpm/μg DNA | μg 3-CPs/μg DNA (calf thymus DNA; 0-60 min incubation (dark)): 0.009×10^-3 μg 3-CPs/μg DNA | cpm/μg DNA (calf thymus DNA; [3]): 3.29 cpm/μg DNA | μg 3-CPs/μg DNA (calf thymus DNA; [3]): 0.14×10^-3 μg 3-CPs/μg DNA | cpm/μg DNA (calf thymus DNA; [4]): 4.25 cpm/μg DNA | μg 3-CPs/μg DNA (calf thymus DNA; [4]): 0.18×10^-3 μg 3-CPs/μg DNA | cpm/μg DNA (calf thymus DNA; [5]): 4.30 cpm/μg DNA | μg 3-CPs/μg DNA (calf thymus DNA; [5]): 0.18×10^-3 μg 3-CPs/μg DNA | cpm/μg DNA (calf thymus DNA; [6]): 3.10 cpm/μg DNA | μg 3-CPs/μg DNA (calf thymus DNA; [6]): 0.13×10^-3 μg 3-CPs/μg DNA | dose of 365 nm light up to which binding increases rapidly (calf thymus DNA; in vitro): up to 3780 J/m^2 | difference in photoreactivity with DNA in vitro, 3-CPs vs 8-MOP (calf thymus DNA; in vitro (table 3)): 4.8 factor | photoreactivity with native DNA, times lower than 8-MOP (calf thymus DNA; initial part of the photoreaction): about 5 times | reassociation of DNA after heat denaturation (yeast DNA): such a reassociation was not found | cross-links in DNA (yeast DNA; dose range used): does not induce cross-links in DNA; also recorded: absence of cross-link formation | difference in survival response, 3-CPs vs 8-MOP (Saccharomyces cerevisiae [2]): 6 factor | dose-modifying factor for rad9-4 compared to wild type (Saccharomyces cerevisiae [2]): constant | photobiological activity after previous exposure to light (Saccharomyces cerevisiae [2]): decline in the photobiological activity | resistance to the killing effect compared with 8-MOP (Saccharomyces cerevisiae [2]): much higher than that expected from the photoreactivity | shape of survival curve (Saccharomyces cerevisiae [2]): exponential survival curve | survival level compared with 8-MOP (Saccharomyces cerevisiae [2]): still relatively high as compared to that for 8-MOP | survivors (Saccharomyces cerevisiae [2]; saline, 5 min): 10^-1 | concentration versus 365 nm light dose, log-log plot at given survival (Saccharomyces cerevisiae [2]; wild type and rad9-4): follows a linear function | reciprocity between light dose and drug concentration for cell killing (Saccharomyces cerevisiae [2]; wild type and rad9-4): no reciprocity between the light dose and the drug concentration | photoaffinity for RNA (yeast RNA): relatively low photoaffinity for RNA | cpm for 10^8 cells (yeast RNA; 5-60 min, no 365 nm light): 1285 cpm for 10^8 cells | cpm for 10^8 cells (yeast RNA; [7]): 7130 cpm for 10^8 cells | cpm for 10^8 cells (yeast RNA; [8]): 11040 cpm for 10^8 cells | cpm for 10^8 cells (yeast RNA; [9]): 14170 cpm for 10^8 cells | cpm for 10^8 cells (yeast RNA; [10]): 18780 cpm for 10^8 cells | cpm for 10^8 cells (yeast RNA; 30 min, 37.8 × 10^4 ergs.mm^-2 365 nm): 25380 cpm for 10^8 cells | cpm for 10^8 cells (yeast RNA; 40 min, 50.4 × 10^4 ergs.mm^-2 365 nm): 29240 cpm for 10^8 cells | cpm for 10^8 cells (yeast RNA; 60 min, 75.6 × 10^4 ergs.mm^-2 365 nm): 31730 cpm for 10^8 cells | Molecules 3-CPs/μg DNA (yeast RNA; 5-60 min, no 365 nm light): 0.0023 Molecules 3-CPs/μg DNA × 10^14 | μg 3-CPs/μg DNA (yeast RNA; 5-60 min, no 365 nm light): 0.01 μg 3-CPs/μg DNA × 10^-2 | Molecules 3-CPs/μg DNA (yeast RNA; [7]): 0.0130 Molecules 3-CPs/μg DNA × 10^14 | μg 3-CPs/μg DNA (yeast RNA; [7]): 0.056 μg 3-CPs/μg DNA × 10^-2 | Molecules 3-CPs/μg DNA (yeast RNA; [8]): 0.020 Molecules 3-CPs/μg DNA × 10^14 | μg 3-CPs/μg DNA (yeast RNA; [8]): 0.086 μg 3-CPs/μg DNA × 10^-2 | Molecules 3-CPs/μg DNA (yeast RNA; [9]): 0.026 Molecules 3-CPs/μg DNA × 10^14 | μg 3-CPs/μg DNA (yeast RNA; [9]): 0.11 μg 3-CPs/μg DNA × 10^-2 | Molecules 3-CPs/μg DNA (yeast RNA; [10]): 0.034 Molecules 3-CPs/μg DNA × 10^14
